Results as given in patent US20080255099A1 (priority 2004, published 2008).
Where two headings read alike, the source gives them in different places.

Columns and labels:
[1] = test system: HeLa; conditions: HeLa cells; T. Saito et al. 1985; cited from earlier work
[2] = test system: secreted VEGF; test: Secreted VEGF ELISA test in Hep3B-VEGF Luciferase cells under deferoxamine-induced hypoxia; assay type: cell-based, human; conditions: deferoxamine 100 μM, 18-20 h, read-out: IC50 for inhibition of secreted VEGF (ELISA)
[3] = test system: VEGF promoter; test: Luciferase assay for inhibition of the VEGF promoter in Hep3B-VEGF Luciferase cells; assay type: cell-based, human; conditions: deferoxamine 100 μM, 18-20 h, read-out: IC50 for inhibition of luciferase signal (VEGF promoter)
[4] = biological target: T1, Biot-Hif-1α^786-826/GST-p300^323/423 (Homo sapiens, UniProt Q09472); test: Inhibition of Hif-1α/p300 interaction, DELFIA fluorescence assay; assay type: binding; conditions: for inhibition of the interaction between Hif-1α and p300 (in words): fluorescency assay adapted from Freedman et al.
T1 construct: the p300 region comprised between the 323-423 aminoacids; made in house; host or cells: E. coli BL21 (DE3), vector pGEX-4T-1

[5] = test system: tumor growth; conditions: tumor-bearing mice; Kung et al. 2004; cited from earlier work

T1 sequence (Q09472 323-423): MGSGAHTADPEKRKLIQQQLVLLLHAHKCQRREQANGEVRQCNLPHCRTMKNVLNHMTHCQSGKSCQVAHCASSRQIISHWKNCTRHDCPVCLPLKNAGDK

## CN1C(=O)[C@]23SS[C@@]1(CO)C(=O)N2[C@H]1Nc2ccccc2C1([C@@]12c4ccccc4N[C@@H]1N1C(=O)[C@]4(CO)SS[C@]1(C(=O)N4C)[C@H]2O)[C@@H]3O (stereo partly drawn) [11α,11α′-dihydroxy Chaetocin, reference compound]
[1]
  cytotoxic activity IC50: about 0.03 μg/mL

## CN1C(=O)[C@@]23CC4([C@]56C[C@@]78SS[C@@](CO)(C(=O)N7[C@H]5Nc5ccccc56)N(C)C8=O)c5ccccc5N[C@@H]4N2C(=O)[C@]1(CO)SS3 (stereo partly shown) [chaetocin]
[2]; Homo sapiens
  IC50: 100 nM
[1]
  cytotoxic activity IC50: about 0.03 μg/mL
[3]; Homo sapiens
  IC50: 40 nM
[4]
  IC50: 12500 nM
  inhibition of the interaction between Hif-1α and p300 (in words): able to inhibit the interaction between Hif-1α and p300

## CN1C(=O)[C@]2(Cc3cn(C45C[C@@]67SS[C@@](CO)(C(=O)N6[C@H]4Nc4ccccc45)N(C)C7=O)c4ccccc34)SS[C@@]1(CO)C(=O)N2C (stereo partly shown) [chaetomin]
[5]
  tumor growth and hypoxia-induced transcription in the tumor (in words): inhibits hypoxia-induced transcription in the tumor and tumor growth

## gliotoxin
[2]
  IC50: 200 nM
[3]
  IC50: 50 nM
[4]
  inhibition of the interaction between Hif-1α and p300 (in words): able to inhibit the interaction between Hif-1α and p300
